Key:
Iba1 = assay: Immunohistochemical staining of Iba-1 in the striatum, Syn^Tg mice; type: in vivo; settings: EHT 12 mg/kg/day and/or caffeine 50 mg/kg/day until six months of age
Text: Neuroinflammation is one of the neuropathological features of PD and models of α-synucleinopathy including Syn^Tg mice (Lee K W, et al. (2011) Enhanced phosphatase activity attenuates alpha-synucleinopathy in a mouse model. J Neurosci 31(19):6963-6971).
Thy1-α-synuclein transgenic mice (Syn^Tg) on BDF1 background overexpressing human wild-type α-synuclein under the control of the Thy1 promoter were maintained by mating heterozygous transgenic females with WT BDF1 males (Rockenstein E, et al. (2002) Differential neuropathological alterations in transgenic mice expressing alpha-synuclein from the platelet-derived growth factor and Thy-1 promoters. J Neurosci Res 68(5):568-578). BDF1 mice (mixed C57BL/6-DBA/2) were generated every three months by mating female C57BL/6 (The Jackson Laboratory) and male DBA/2 mice (Charles River). Experiments were performed with male transgenic mice and their WT littermates. […] Wild-type littermates received regular water and control chow. […] Mice were weighed and their food and water intake was quantified weekly. […]
Vectastain elite ABC kit (Vector Laboratories, Burlingame, Calif.) and 3,3′-diaminobenzidine (Sigma-Aldrich) were used for amplifying and color development. […] For other stains, the whole microscopic field was analyzed. For p-α-Syn stains in the cortex, four matching regions in each of two sections per animal were counted.

Syn^Tg mice [1] = settings: cited from earlier work
Syn^Tg mice [2] = assay: Rotarod, Syn^Tg mice; type: in vivo; settings: EHT 12 mg/kg/day in chow and/or caffeine 50 mg/kg/day in drinking water from weaning until six months of age, vs untreated Syn^Tg mice
Text: (§1) Thy1-α-synuclein transgenic mice (Syn^Tg) on BDF1 background overexpressing human wild-type α-synuclein under the control of the Thy1 promoter were maintained by mating heterozygous transgenic females with WT BDF1 males (Rockenstein E, et al. (2002) Differential neuropathological alterations in transgenic mice expressing alpha-synuclein from the platelet-derived growth factor and Thy-1 promoters. J Neurosci Res 68(5):568-578). BDF1 mice (mixed C57BL/6-DBA/2) were generated every three months by mating female C57BL/6 (The Jackson Laboratory) and male DBA/2 mice (Charles River). Experiments were performed with male transgenic mice and their WT littermates. […] Wild-type littermates received regular water and control chow. […] At two months of age, mice were inoculated with α-Syn PFF unilaterally in the striatum. These treatments continued throughout the experiment until animals were sacrificed. Mice were weighed and their food and water intake was quantified weekly. Animals were housed 2-5/cage in an AAALAC approved facility in a temperature- and humidity-controlled environment under a 12-hour light/dark cycle and were maintained on a diet of lab chow and water ad libitum. […]

[3] = tested on: phosphorylated α-synuclein (p-α-Syn); assay: Western blot of p-α-Syn in cortical tissue lysates, Syn^Tg mice; type: in vivo; settings: EHT 12 mg/kg/day and/or caffeine 50 mg/kg/day until six months of age, vs untreated Syn^Tg mice
Text: as §1, with “weekly.” for “weekly. Animals were housed 2-5/cage in an AAALAC approved facility in a temperature- and humidity-controlled environment under a 12-hour light/dark cycle and were maintained on a diet of lab chow and water ad libitum.”
(§2) Human neuroblastoma SH-SY5Y cells were cultured in DMEM-F12 with 10% FBS. […] Protein concentration was determined by bicinchonic acid (BCA) method (Pierce), equal amount of protein was separated on 5-20% SDS-PAGE gel (Genescript) and transferred to nitrocellulose or PVDF membrane (Biorad). […]

PP2A = assay: Western blot of PP2A methylation, ipsilateral striatal tissue lysates of α-Syn PFF inoculated mice; type: in vivo; settings: EHT 12 mg/kg/day and/or caffeine 50 mg/kg/day, vs untreated α-Syn PFF inoculated mice
Text: Thy1-α-synuclein transgenic mice (Syn^Tg) on BDF1 background overexpressing human wild-type α-synuclein under the control of the Thy1 promoter were maintained by mating heterozygous transgenic females with WT BDF1 males (Rockenstein E, et al. (2002) Differential neuropathological alterations in transgenic mice expressing alpha-synuclein from the platelet-derived growth factor and Thy-1 promoters. J Neurosci Res 68(5):568-578). BDF1 mice (mixed C57BL/6-DBA/2) were generated every three months by mating female C57BL/6 (The Jackson Laboratory) and male DBA/2 mice (Charles River). Experiments were performed with male transgenic mice and their WT littermates. […] Wild-type littermates received regular water and control chow. […] At two months of age, mice were inoculated with α-Syn PFF unilaterally in the striatum. These treatments continued throughout the experiment until animals were sacrificed. Mice were weighed and their food and water intake was quantified weekly. Animals were housed 2-5/cage in an AAALAC approved facility in a temperature- and humidity-controlled environment under a 12-hour light/dark cycle and were maintained on a diet of lab chow and water ad libitum. All animal procedures were approved by the Rutgers-Robert Wood Johnson Medical School Institutional Animal Care and Use Committee and were performed according to the National Institutes of Health Guide for the Care and Use of Laboratory Animals.
α-Syn PFF solution was sonicated at 60% amplitude 30 times (0.5 sec on, 0.5 sec off). During the stereotactic surgery, two month old WT C57BL/6 mice were anesthetized by Ketamine/xylazine (90/4.5 mg/kg, i.p., Ketaset from Zoetis, and Anased from Akorn) and positioned in a digital stereotaxic apparatus (Stoelting, Wood Dale, Ill.). […]
as §2

dopamine = assay: Striatal dopamine content by HPLC-MS, α-Syn PFF inoculated WT mice; type: in vivo; settings: each compound alone, EHT 12 mg/kg/day or caffeine 50 mg/kg/day, vs untreated α-Syn PFF inoculated mice
Text: as §1

Syn^Tg mice [4] = assay: Wire Hang test, Syn^Tg mice; type: in vivo; settings: EHT 12 mg/kg/day in chow and/or caffeine 50 mg/kg/day in drinking water from weaning until six months of age, vs untreated Syn^Tg mice
Text: as §1

Compound: CCCCCCCCCCCCCCCCCCCC(=O)NCCc1c[nH]c2ccc(O)cc12 [EHT, eicosanoyl-5-hydroxytryptamide]
- microglial activation (Iba1) in the striatum (Iba1): partially but insignificantly attenuated
- molecular, histochemical, and behavioral benefits (Syn^Tg mice [1]; EHT 12 mg/kg/day in chow, nine months of treatment): partial amelioration
- PP2A methylation in brain tissue lysates (Syn^Tg mice [1]; EHT alone for nine months, dose dependent, more evident at 120 mg/kg/day): modulated PP2A methylation
- accumulation of p-α-Syn (Syn^Tg mice [1]; EHT alone for nine months, more evident at 120 mg/kg/day): reduced the accumulation of p-α-Syn
- performance on the rotarod (Syn^Tg mice [2]): did not improve performance
- p-α-Syn levels by Western blot, cortical tissue lysates [3]: no significant effect
- methyl- to demethyl-PP2A ratio (PP2A): insignificant increase
- methyl-PP2A levels (PP2A): insignificant increase
- dopamine (DA) content in lysates of the ipsilateral striatum, benefit in words (dopamine): did not have a significant benefit
- performance on the wire hang test (Syn^Tg mice [4]): did so only on the Wire Hang test
